Measurements: patent US20250186627A1, “RADIOLABELED COMPOUNDS TARGETING THE PROSTATE-SPECIFIC MEMBRANE ANTIGEN” (PROVINCIAL HEALTH SERVICES AUTHORITY, priority 2022, published 2025)
*1 amine or outer side, *2 acyl side, *3 side chain or, on linkers, in order; H or OH if unused. Where a SMILES comes first, the peptide text is derived from it. [ ]: non-standard residue; d: D form. The star is where a group is joined. AadUreaLys(Nε) = O=C(O)CCC[C@H](NC(=O)N[C@@H](CCCCN*)C(=O)O)C(=O)O; X4 = O=C(N[C@@H](CCCCN*)C(=O)O)N[C@@H](C[C@@H](F)C(=O)O)C(=O)O; Butanoyl(4-(4-NO2Ph)) = O=C(CCCc1ccc([N+](=O)[O-])cc1)*; DOTA = O=C(O)CN1CCN(CC(=O)O)CCN(CC(=O)*)CCN(CC(=O)O)CC1; EuK = O=C(O)CC[C@H](NC(=O)N[C@@H](CCCCN*)C(=O)O)C(=O)O; Ala(9-anthryl) = N[C@@H](Cc1c2ccccc2cc2ccccc12)C(=O)O; Butanoyl(4-(4-MeO-phenyl)) = COc1ccc(CCCC(=O)*)cc1; X1 = O=C(C1CCC(CN[*:1])CC1)[*:2]; X3 = O=C(C1CCC(N[*:1])CC1)[*:2]

The molecules below were run against T1, PSMA (Homo sapiens, UniProt Q04609) (assay: In vitro PSMA competitive binding assay, LNCaP cells, [18F]DCFPyL radioligand). Conditions: [18F]DCFPyL 0.1 nM, read-out: PSMA binding affinity (Ki).
T1 construct: endogenous in cells; host or cells: LNCaP cells
Method: Inhibition constants (Ki) to PSMA were measured by in vitro competition binding assays using [^18F]DCFPyL as the radioligand. LNCaP cells which were plated onto a 24-well poly-D-lysine coated plate for 48 h (400,000/well). Growth medium was removed and replaced with HEPES buffered saline (50 mM HEPES, pH 7.5, 0.9% sodium chloride). After 1 h, [^18F]DCFPyL (0.1 nM) was added to each well (in triplicate) containing varied concentrations ([…]) of tested compounds The assay mixtures were incubated for 1 h at 37° C. with gentle agitation followed by two washes with cold HEPES buffered saline. A trypsin solution (0.25%, 400 μL) was then added to each well to harvest the cells. Radioactivity was measured by gamma counting and Ki values calculated using the ‘one site—fit Ki’ built-in model in Prism 8 (GraphPad).

T1 sequence (Q04609 whole entry): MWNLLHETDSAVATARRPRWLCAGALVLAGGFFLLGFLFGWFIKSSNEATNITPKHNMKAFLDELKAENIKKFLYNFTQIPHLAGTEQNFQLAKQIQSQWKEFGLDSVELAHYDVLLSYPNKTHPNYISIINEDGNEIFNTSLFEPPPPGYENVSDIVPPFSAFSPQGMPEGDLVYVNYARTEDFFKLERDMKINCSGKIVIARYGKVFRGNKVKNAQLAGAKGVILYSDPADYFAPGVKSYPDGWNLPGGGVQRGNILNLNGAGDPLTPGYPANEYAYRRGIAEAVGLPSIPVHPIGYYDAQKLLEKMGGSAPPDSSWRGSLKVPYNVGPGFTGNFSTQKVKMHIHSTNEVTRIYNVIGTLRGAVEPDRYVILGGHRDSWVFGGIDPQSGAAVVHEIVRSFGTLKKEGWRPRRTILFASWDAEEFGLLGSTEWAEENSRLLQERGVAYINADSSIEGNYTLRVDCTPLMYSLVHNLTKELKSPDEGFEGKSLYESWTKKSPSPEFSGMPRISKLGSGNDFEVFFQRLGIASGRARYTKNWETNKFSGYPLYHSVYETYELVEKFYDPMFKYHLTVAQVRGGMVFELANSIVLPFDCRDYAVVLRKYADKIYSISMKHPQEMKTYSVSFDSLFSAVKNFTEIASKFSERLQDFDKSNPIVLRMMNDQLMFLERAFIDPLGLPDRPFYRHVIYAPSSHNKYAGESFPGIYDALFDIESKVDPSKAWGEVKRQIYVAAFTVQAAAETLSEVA

| SMILES | Ki [nM] |
| --- | --- |
| COc1ccc(CCCC(=O)NCC(=O)N[C@@H](CCCCNC(=O)CN2CCN(CC(=O)O)CCN(CC(=O)O)CCN(CC(=O)O)CC2)C(=O)NCC(=O)NCC2CCC(C(=O)N[C@@H](Cc3c4ccccc4cc4ccccc34)C(=O)NCCCC[C@H](NC(=O)N[C@@H](C[C@@H](F)C(=O)O)C(=O)O)C(=O)O)CC2)cc1 (stereo partly shown) [CCZ02008] ({Butanoyl(4-(4-MeO-phenyl))}-GK(DOTA)G[X1][Ala(9-anthryl)]-X4) | 0.48 ± 0.1 |
| O=C(O)CCC[C@H](NC(=O)N[C@@H](CCCCNC(=O)[C@H](Cc1c2ccccc2cc2ccccc12)NC(=O)C1CCC(CNC(=O)CNC(=O)[C@H](CCCCNC(=O)CN2CCOCCN(CC(=O)O)CCN(CC(=O)O)CCOCCN(CC(=O)O)CC2)NC(=O)CNC(=O)CCCc2ccc([N+](=O)[O-])cc2)CC1)C(=O)O)C(=O)O (stereo partly shown) [CCZ02034] | 2.82 |
| COc1ccc(CCCC(=O)NCC(=O)N[C@@H](CCCCNC(=O)CN2CCN(CC(=O)O)CCN(CC(=O)O)CCN(CC(=O)O)CC2)C(=O)NCC(=O)NCC(=O)NCC2CCC(C(=O)N[C@@H](Cc3c4ccccc4cc4ccccc34)C(=O)NCCCC[C@H](NC(=O)N[C@@H](CCCC(=O)O)C(=O)O)C(=O)O)CC2)cc1 (stereo partly shown) [CCZ02060] ({Butanoyl(4-(4-MeO-phenyl))}-GK(DOTA)GG[X1][Ala(9-anthryl)]-{AadUreaLys(Nε)}) | 1.09 ± 0.19 |
| O=C(O)CCC[C@H](NC(=O)N[C@@H](CCCCNC(=O)[C@H](Cc1c2ccccc2cc2ccccc12)NC(=O)C1CCC(NC(=O)CNC(=O)C[C@H](CCCCNC(=O)CN2CCN(CC(=O)O)CCN(CC(=O)O)CCN(CC(=O)O)CC2)NC(=O)CNC(=O)CCCc2ccc([N+](=O)[O-])cc2)CC1)C(=O)O)C(=O)O (stereo partly shown) [CCZ02022] | 11.2 |
| O=C(O)CC[C@H](NC(=O)N[C@@H](CCCCNC(=O)[C@H](Cc1c2ccccc2cc2ccccc12)NC(=O)C1CCC(CNC(=O)CNC(=O)[C@H](CCCCNC(=O)CN2CCN(CC(=O)O)CCN(CC(=O)O)CCN(CC(=O)O)CC2)NC(=O)CNC(=O)CCCc2ccc([N+](=O)[O-])cc2)CC1)C(=O)O)C(=O)O (stereo partly shown) [CCZ02024] ({Butanoyl(4-(4-NO2Ph))}-GK(DOTA)G[X1][Ala(9-anthryl)]-EuK) | 1.54 |
| COc1ccc(CCCC(=O)NCC(=O)N[C@@H](CCCCNC(=O)COCCOCCNC(=O)CN2CCN(CC(N)=O)CCN(CC(=O)O)CCN(CC(=O)O)CC2)C(=O)NCC2CCC(C(=O)N[C@@H](Cc3c4ccccc4cc4ccccc34)C(=O)NCCCC[C@H](NC(=O)N[C@@H](CCCC(=O)O)C(=O)O)C(=O)O)CC2)cc1 (stereo partly shown) [CCZ02005] | 2.08 |
| COc1ccc(CCCC(=O)NCC(=O)N[C@@H](CCCCNC(=O)CN2CCN(CC(=O)O)CCN(CC(=O)O)CCN(CC(=O)O)CC2)C(=O)NCC2CCC(C(=O)N[C@@H](Cc3c4ccccc4cc4ccccc34)C(=O)NCCCC[C@H](NC(=O)N[C@@H](CCCC(=O)O)C(=O)O)C(=O)O)CC2)cc1 (stereo partly shown) [HTK03170, reference compound] | 1.53 ± 0.33 |
| O=C(O)CN1CCN(CC(=O)O)CCN(CC(=O)NCCCC[C@H](NC(=O)CNC(=O)CCCc2ccc([N+](=O)[O-])cc2)C(=O)NCC(=O)NCC2CCC(C(=O)N[C@@H](Cc3c4ccccc4cc4ccccc34)C(=O)NCCCC[C@H](NC(=O)N[C@@H](C[C@@H](F)C(=O)O)C(=O)O)C(=O)O)CC2)CCN(CC(=O)O)CC1 (stereo partly shown) [CCZ02025] ({Butanoyl(4-(4-NO2Ph))}-GK(DOTA)G[X1][Ala(9-anthryl)]-X4) | 0.59 |
| COc1ccc(CCCC(=O)NCC(=O)N[C@@H](CCCCNC(=O)CN2CCN(CC(=O)O)CCN(CC(=O)O)CCN(CC(=O)O)CC2)C(=O)NCC(=O)NCC2CCC(C(=O)N[C@@H](Cc3c4ccccc4cc4ccccc34)C(=O)NCCCC[C@H](NC(=O)N[C@@H](CCCC(=O)O)C(=O)O)C(=O)O)CC2)cc1 (stereo partly shown) [CCZ02009] ({Butanoyl(4-(4-MeO-phenyl))}-GK(DOTA)G[X1][Ala(9-anthryl)]-{AadUreaLys(Nε)}) | 0.12 ± 0.02 |
| O=C(O)CCC[C@H](NC(=O)N[C@@H](CCCCNC(=O)[C@H](Cc1c2ccccc2cc2ccccc12)NC(=O)C1CCC(NC(=O)CNC(=O)[C@H](CCCCNC(=O)CN2CCN(CC(=O)O)CCN(CC(=O)O)CCN(CC(=O)O)CC2)NC(=O)CNC(=O)CCCc2ccc([N+](=O)[O-])cc2)CC1)C(=O)O)C(=O)O (stereo partly shown) [CCZ02021] ({Butanoyl(4-(4-NO2Ph))}-GK(DOTA)G[X3][Ala(9-anthryl)]-{AadUreaLys(Nε)}) | 5.71 |
| O=C(O)CCC[C@H](NC(=O)N[C@@H](CCCCNC(=O)[C@H](Cc1c2ccccc2cc2ccccc12)NC(=O)C1CCC(NC(=O)CN2CCN(CC(=O)O)CCN(CC(=O)O)CCN(CC(=O)O)CC2)CC1)C(=O)O)C(=O)O (stereo partly shown) [CCZ02012] | 1.67 |
| COc1ccc(CCCC(=O)NCC(=O)N[C@@H](CCCCNC(=O)CN2CCN(CC(=O)O)CCN(CC(=O)O)CCN(CC(=O)O)CC2)C(=O)NCC(=O)NCC(=O)NCC(=O)NCC(=O)NCC2CCC(C(=O)N[C@@H](Cc3c4ccccc4cc4ccccc34)C(=O)NCCCC[C@H](NC(=O)N[C@@H](CCCC(=O)O)C(=O)O)C(=O)O)CC2)cc1 (stereo partly shown) [CCZ02059] ({Butanoyl(4-(4-MeO-phenyl))}-GK(DOTA)GGGG[X1][Ala(9-anthryl)]-{AadUreaLys(Nε)}) | 10.8 ± 3.28 |
| O=C(O)CCC[C@H](NC(=O)N[C@@H](CCCCNC(=O)[C@H](Cc1c2ccccc2cc2ccccc12)NC(=O)C1CCC(NC(=O)CN2CCN(CC(=O)O)CCN(CC(=O)O)CCN(CC(=O)O)CC2)CC1)C(=O)O)C(=O)O (stereo partly shown) [CCZ02013] | 1.53 ± 0.21 |
| COc1ccc(CCCC(=O)NCC(=O)N[C@@H](CCCCNC(=O)CN2CCN(CC(=O)O)CCN(CC(=O)O)CCN(CC(=O)O)CC2)CC(=O)NCC2CCC(C(=O)N[C@@H](Cc3c4ccccc4cc4ccccc34)C(=O)NCCCC[C@H](NC(=O)N[C@@H](CCCC(=O)O)C(=O)O)C(=O)O)CC2)cc1 (stereo partly shown) [CCZ02015] | 1.09 ± 0.3 |

The molecules below were run against T2, Human serum albumin (Homo sapiens, UniProt P02768) (assay: Human serum albumin binding assay (Transil HSA binding kit)). Conditions: read-out: Human albumin binding affinity (Kd).
T2 construct: purchased Sovicell
Method: Human serum albumin binding assay was performed using Transil HSA binding kit (Sovicell) according to manufacturer's recommended procedures.

T2 sequence (P02768 25-609): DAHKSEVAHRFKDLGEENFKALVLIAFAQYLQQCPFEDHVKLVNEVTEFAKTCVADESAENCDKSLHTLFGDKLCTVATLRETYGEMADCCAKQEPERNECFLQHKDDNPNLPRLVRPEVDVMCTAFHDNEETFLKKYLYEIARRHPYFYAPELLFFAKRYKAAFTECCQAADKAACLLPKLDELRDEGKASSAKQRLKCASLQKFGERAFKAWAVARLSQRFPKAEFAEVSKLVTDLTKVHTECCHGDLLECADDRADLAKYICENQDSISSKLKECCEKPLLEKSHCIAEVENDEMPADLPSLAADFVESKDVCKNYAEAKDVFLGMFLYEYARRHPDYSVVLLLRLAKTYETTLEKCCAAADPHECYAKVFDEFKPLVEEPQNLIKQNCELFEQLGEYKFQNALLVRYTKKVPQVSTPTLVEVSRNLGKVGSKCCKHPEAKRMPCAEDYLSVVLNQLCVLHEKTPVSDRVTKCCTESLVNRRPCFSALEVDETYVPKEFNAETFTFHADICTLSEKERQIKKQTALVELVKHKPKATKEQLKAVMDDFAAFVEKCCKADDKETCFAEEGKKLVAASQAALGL

| SMILES | Kd [nM] |
| --- | --- |
| COc1ccc(CCCC(=O)NCC(=O)N[C@@H](CCCCNC(=O)CN2CCN(CC(=O)O)CCN(CC(=O)O)CCN(CC(=O)O)CC2)C(=O)NCC2CCC(C(=O)N[C@@H](Cc3c4ccccc4cc4ccccc34)C(=O)NCCCC[C@H](NC(=O)N[C@@H](CCCC(=O)O)C(=O)O)C(=O)O)CC2)cc1 (stereo partly shown) [HTK03170, reference compound] | 70100 ± 3200 |
| COc1ccc(CCCC(=O)NCC(=O)N[C@@H](CCCCNC(=O)CN2CCN(CC(=O)O)CCN(CC(=O)O)CCN(CC(=O)O)CC2)C(=O)NCC(=O)NCC2CCC(C(=O)N[C@@H](Cc3c4ccccc4cc4ccccc34)C(=O)NCCCC[C@H](NC(=O)N[C@@H](CCCC(=O)O)C(=O)O)C(=O)O)CC2)cc1 (stereo partly shown) [CCZ02009] ({Butanoyl(4-(4-MeO-phenyl))}-GK(DOTA)G[X1][Ala(9-anthryl)]-{AadUreaLys(Nε)}) | 64900 ± 2200 |
